Laboratory results from patent publication US10294202B2, “Pyrrolidinones as herbicides” (FMC Corporation, priority 2013, dated 2019).

Legend:
[1] = tested on: giant foxtail; assay: Test A pre-/postemergence herbicide test; assay type: in vivo, Setaria faberii
Procedure, shortened: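 Seeds sown in loam soil/sand blend received a preemergence directed soil spray of test chemical in non-phytotoxic solvent with surfactant; postemergence plants (2–10 cm, one- to two-leaf stage) were sprayed with the same formulation. After about 10 days in greenhouse, injury was rated visually versus untreated controls, 0 (no effect) to 100 (complete control).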

[2] = tested on: rice; assay: Test B flooded paddy test; assay type: in vivo, Oryza sativa; details: 500 g ai/ha, Flood; scale of 0 to 100 where 0 is no effect and 100 is complete control
Procedure, shortened: (§1)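 Scoring: visual, compared with untreated controls, 0 = no effect through 100 = complete control, taken 13 to 15 days after treatment in the greenhouse. Compounds had been added to paddy water over soil flooded 3 cm deep at the plants' 2-leaf stage.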

[3] = tested on: sedge, umbrella; assay: Test B flooded paddy test; assay type: in vivo, Cyperus difformis; details: 500 g ai/ha, Flood; scale of 0 to 100 where 0 is no effect and 100 is complete control
Procedure, shortened: as §1

[4] = tested on: ducksalad; assay: Test B flooded paddy test; assay type: in vivo, Heteranthera limosa; details: 500 g ai/ha, Flood; scale of 0 to 100 where 0 is no effect and 100 is complete control
Procedure, shortened: as §1

[5] = tested on: barnyardgrass; assay: Test B flooded paddy test; assay type: in vivo, Echinochloa crus-galli; details: 500 g ai/ha, Flood; scale of 0 to 100 where 0 is no effect and 100 is complete control
Procedure, shortened: as §1

[6] = tested on: blackgrass; assay: Test C pre-/postemergence herbicide test; assay type: in vivo, Alopecurus myosuroides
Procedure, shortened: (§2)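 Visual rating, 0 (no effect) to 100 (complete control), versus untreated controls after 13 to 15 days in the greenhouse. Pre: seeds in loam/sand, sprayed at planting. Post: 1- to 4-leaf plants (2 to 18 cm) in peat-based mix. Compounds in non-phytotoxic solvent plus surfactant.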

[7] = tested on: nutsedge, yellow; assay: Test C pre-/postemergence herbicide test; assay type: in vivo, Cyperus esculentus
Procedure, shortened: as §2

[8] = tested on: pigweed; assay: Test C pre-/postemergence herbicide test; assay type: in vivo, Amaranthus retroflexus
Procedure, shortened: as §2

[9] = tested on: ragweed; assay: Test C pre-/postemergence herbicide test; assay type: in vivo, Ambrosia elatior
Procedure, shortened: as §2

[10] = tested on: oilseed rape; assay: Test C pre-/postemergence herbicide test; assay type: in vivo, Brassica napus
Procedure, shortened: as §2

[11] = tested on: waterhemp; assay: Test C pre-/postemergence herbicide test; assay type: in vivo, Amaranthus rudis
Procedure, shortened: as §2

[12] = tested on: oat, wild; assay: Test C pre-/postemergence herbicide test; assay type: in vivo, Avena fatua; details: Postemergence
Procedure, shortened: as §2

[13] = tested on: velvetleaf; assay: Test C pre-/postemergence herbicide test; assay type: in vivo, Abutilon theophrasti
Procedure, shortened: as §2

[14] = Postemergence, 500 g ai/ha, 0 to 100 scale (0 no effect, 100 complete control)
[15] = Preemergence, 125 g ai/ha, 0 to 100 scale where 0 is no effect and 100 is complete control
[16] = Postemergence, 16 g ai/ha, scale 0 to 100 (0 no effect, 100 complete control)
[17] = Postemergence, 31 g ai/ha, scale 0 to 100 (0 no effect, 100 complete control)
[18] = Postemergence, 62 g ai/ha, scale 0 (no effect) to 100 (complete control)
[19] = Postemergence, 125 g ai/ha, scale 0 to 100 (0 no effect, 100 complete control)
[20] = Preemergence, 31 g ai/ha, scale 0 to 100, 0 is no effect and 100 is complete control
[21] = Preemergence, 62 g ai/ha, scale 0 to 100 (0 no effect, 100 complete control)
[22] = Preemergence, 125 g ai/ha, scale 0 to 100 (0 no effect, 100 complete control)
[23] = Preemergence, 16 g ai/ha, scale 0 to 100
[24] = 31 g ai/ha, scale 0 to 100 (0 no effect, 100 complete control)
[25] = 62 g ai/ha, scale 0 (no effect) to 100 (complete control)
[26] = 125 g ai/ha, scale 0 to 100 (0 no effect, 100 complete control)
[27] = Postemergence, 250 g ai/ha, scale 0 to 100 (0 no effect, 100 complete control)

For `CN1CC(c2cccc(C(F)(F)F)c2)C(C(=O)Nc2ccccc2F)C1=O` (stereo not shown) [Compound 277], the “Plant response rating, Foxtail, Giant” value ([1]; Postemergence, 125 g ai/ha, 0 to 100 scale, 0 is no effect, 100 is complete control) was 90, the “Plant response rating, Foxtail, Giant” value [1, 14] was 90 and the “Plant response rating, Foxtail, Giant” value [1, 15] was 90. The “Plant response rating, Foxtail, Giant” value ([1]; preemergence, 500 g ai/ha, 0 to 100 scale, 0 is no effect and 100 is complete control) was 90, the “Plant response rating, Rice” value [2] was 0 and the “Plant response rating, Sedge, Umbrella” value [3] was 0. For the same compound, the “Plant response rating, Ducksalad” value [4] was 100, the “Plant response rating, Barnyardgrass” value [5] was 90 and the “Plant response rating, Blackgrass” value [6, 16] was 0. For the same compound, the “Plant response rating, Blackgrass” value [6, 17] was 0, the “Plant response rating, Blackgrass” value [6, 18] was 0 and the “Plant response rating, Blackgrass” value [6, 19] was 0. For the same compound, the “Blackgrass plant response rating” value [6, 20] was 70, the “Blackgrass plant response rating” value [6, 21] was 70 and the “Plant response rating, Blackgrass” value [6, 22] was 90. The “Plant response rating, Blackgrass” value [6, 23] was 40, the “Plant response rating, Nutsedge, Yellow” value [7, 16] was 0 and the “Plant response rating, Nutsedge, Yellow” value [7, 17] was 10. For the same compound, the “Plant response rating, Nutsedge, Yellow” value [7, 18] was 0, the “Plant response rating, Nutsedge, Yellow” value [7, 19] was 0 and the “Nutsedge, Yellow plant response rating” value [7, 20] was 0. For the same compound, the “Nutsedge, Yellow plant response rating” value [7, 21] was 20, the “Plant response rating, Nutsedge, Yellow” value [7, 22] was 20 and the “Plant response rating, Nutsedge, Yellow” value [7, 23] was 0. The “Plant response rating, Pigweed” value [8, 16] was 5, the “Plant response rating, Pigweed” value [8, 17] was 10 and the “Plant response rating, Pigweed” value [8, 18] was 10. For the same compound, the “Plant response rating, Pigweed” value [8, 19] was 30, the “Pigweed plant response rating” value [8, 20] was 10 and the “Pigweed plant response rating” value [8, 21] was 35. For the same compound, the “Plant response rating, Pigweed” value [8, 22] was 40, the “Plant response rating, Pigweed” value [8, 23] was 0 and the “Plant response rating, Ragweed” value [9, 16] was 10. For the same compound, the “Plant response rating, Ragweed” value [9, 17] was 40, the “Plant response rating, Ragweed” value [9, 18] was 35 and the “Plant response rating, Ragweed” value [9, 19] was 40. The “Ragweed plant response rating” value [9, 20] was 0, the “Ragweed plant response rating” value [9, 21] was 0 and the “Plant response rating, Ragweed” value [9, 22] was 40. For the same compound, the “Plant response rating, Ragweed” value [9, 23] was 0, the “Plant response rating, Oilseed Rape” value [10, 16] was 0 and the “Plant response rating, Oilseed Rape” value [10, 17] was 0. For the same compound, the “Plant response rating, Oilseed Rape” value [10, 18] was 0, the “Plant response rating, Oilseed Rape” value [10, 19] was 0 and the “Oilseed Rape plant response rating” value [10, 20] was 0. For the same compound, the “Oilseed Rape plant response rating” value [10, 21] was 0, the “Plant response rating, Oilseed Rape” value [10, 22] was 80 and the “Plant response rating, Oilseed Rape” value [10, 23] was 0. For the same compound, the “Plant response rating, Waterhemp” value [11, 16] was 5, the “Plant response rating, Waterhemp” value [11, 17] was 5 and the “Plant response rating, Waterhemp” value [11, 18] was 5. For the same compound, the “Plant response rating, Waterhemp” value [11, 19] was 5, the “Waterhemp plant response rating” value [11, 20] was 35 and the “Waterhemp plant response rating” value [11, 21] was 50. For the same compound, the “Plant response rating, Waterhemp” value [11, 22] was 55, the “Plant response rating, Waterhemp” value [11, 23] was 0 and the “Plant response rating, Oat, Wild” value ([12]; 16 g ai/ha, scale 0 to 100 (0 no effect, 100 complete control)) was 0. The “Plant response rating, Oat, Wild” value [12, 24] was 0, the “Plant response rating, Oat, Wild” value [12, 25] was 0 and the “Plant response rating, Oat, Wild” value [12, 26] was 5. The “Plant response rating, Velvetleaf” value [13, 16] was 0, the “Plant response rating, Velvetleaf” value [13, 17] was 0 and the “Plant response rating, Velvetleaf” value [13, 18] was 0. The “Plant response rating, Velvetleaf” value [13, 19] was 15, the “Velvetleaf plant response rating” value [13, 20] was 0 and the “Velvetleaf plant response rating” value [13, 21] was 0. The “Plant response rating, Velvetleaf” value [13, 22] was 35 and the “Plant response rating, Velvetleaf” value [13, 23] was 0.

For `CN1CC(c2ccc(F)c(F)c2)C(C(=O)Nc2ccccc2F)C1=O` (stereo not shown) [Compound 302], the “Plant response rating, Foxtail, Giant” value ([1]; Postemergence, 125 g ai/ha, visual rating on 0 to 100 scale (0 no effect, 100 complete control), approx. 10 days) was 80, the “Plant response rating, Foxtail, Giant” value [1, 14] was 80 and the “Plant response rating, Foxtail, Giant” value [1, 15] was 90. For the same compound, the “Foxtail, Giant plant response rating” value ([1]; Preemergence, 500 g ai/ha, visual rating on 0 to 100 scale (0 no effect, 100 complete control)) was 90, the “Plant response rating, Rice” value [2] was 0 and the “Plant response rating, Sedge, Umbrella” value [3] was 0. For the same compound, the “Plant response rating, Ducksalad” value [4] was 98, the “Plant response rating, Barnyardgrass” value [5] was 80 and the “Plant response rating, Blackgrass” value [6, 17] was 0. The “Plant response rating, Blackgrass” value [6, 18] was 0, the “Plant response rating, Blackgrass” value [6, 19] was 0 and the “Plant response rating, Blackgrass” value [6, 27] was 5. For the same compound, the “Blackgrass plant response rating” value [6, 20] was 0, the “Blackgrass plant response rating” value [6, 21] was 30 and the “Plant response rating, Blackgrass” value [6, 22] was 60. The “Plant response rating (scale of 0 to 100), Blackgrass” value ([6]; Preemergence, 250 g ai/ha) was 85, the “Plant response rating, Nutsedge, Yellow” value [7, 17] was 0 and the “Plant response rating, Nutsedge, Yellow” value [7, 18] was 0. The “Plant response rating, Nutsedge, Yellow” value [7, 19] was 0, the “Plant response rating, Nutsedge, Yellow” value [7, 27] was 20 and the “Nutsedge, Yellow plant response rating” value [7, 20] was 0. For the same compound, the “Nutsedge, Yellow plant response rating” value [7, 21] was 0, the “Plant response rating, Nutsedge, Yellow” value [7, 22] was 0 and the “Plant response rating (scale of 0 to 100), Nutsedge, Yellow” value ([7]; Preemergence, 250 g ai/ha) was 10. For the same compound, the “Plant response rating, Pigweed” value [8, 17] was 15, the “Plant response rating, Pigweed” value [8, 18] was 20 and the “Plant response rating, Pigweed” value [8, 19] was 20. The “Plant response rating, Pigweed” value [8, 27] was 30, the “Pigweed plant response rating” value [8, 20] was 0 and the “Pigweed plant response rating” value [8, 21] was 20. The “Plant response rating, Pigweed” value [8, 22] was 25, the “Plant response rating (scale of 0 to 100), Pigweed” value ([8]; Preemergence, 250 g ai/ha) was 0 and the “Plant response rating, Ragweed” value [9, 17] was 10. For the same compound, the “Plant response rating, Ragweed” value [9, 18] was 20, the “Plant response rating, Ragweed” value [9, 19] was 20 and the “Plant response rating, Ragweed” value [9, 27] was 55. The “Ragweed plant response rating” value [9, 20] was 35, the “Ragweed plant response rating” value [9, 21] was 5 and the “Plant response rating, Ragweed” value [9, 22] was 5. For the same compound, the “Plant response rating (scale of 0 to 100), Ragweed” value ([9]; Preemergence, 250 g ai/ha) was 10, the “Plant response rating, Oilseed Rape” value [10, 17] was 0 and the “Plant response rating, Oilseed Rape” value [10, 18] was 0. The “Plant response rating, Oilseed Rape” value [10, 19] was 40, the “Plant response rating, Oilseed Rape” value [10, 27] was 0 and the “Oilseed Rape plant response rating” value [10, 20] was 0. For the same compound, the “Oilseed Rape plant response rating” value [10, 21] was 0, the “Plant response rating, Oilseed Rape” value [10, 22] was 0 and the “Plant response rating (scale of 0 to 100), Oilseed Rape” value ([10]; Preemergence, 250 g ai/ha) was 10. The “Plant response rating, Waterhemp” value [11, 17] was 10, the “Plant response rating, Waterhemp” value [11, 18] was 20 and the “Plant response rating, Waterhemp” value [11, 19] was 20. For the same compound, the “Plant response rating, Waterhemp” value [11, 27] was 25, the “Waterhemp plant response rating” value [11, 20] was 30 and the “Waterhemp plant response rating” value [11, 21] was 35. The “Plant response rating, Waterhemp” value [11, 22] was 65, the “Plant response rating (scale of 0 to 100), Waterhemp” value ([11]; Preemergence, 250 g ai/ha) was 55 and the “Plant response rating, Oat, Wild” value [12, 24] was 0. For the same compound, the “Plant response rating, Oat, Wild” value [12, 25] was 0, the “Plant response rating, Oat, Wild” value [12, 26] was 0 and the “Plant response rating, Oat, Wild” value ([12]; 250 g ai/ha, scale 0 to 100 (0 no effect, 100 complete control)) was 0. For the same compound, the “Plant response rating, Velvetleaf” value [13, 17] was 0, the “Plant response rating, Velvetleaf” value [13, 18] was 0 and the “Plant response rating, Velvetleaf” value [13, 19] was 0. The “Plant response rating, Velvetleaf” value [13, 27] was 20, the “Velvetleaf plant response rating” value [13, 20] was 0 and the “Velvetleaf plant response rating” value [13, 21] was 0. For the same compound, the “Plant response rating, Velvetleaf” value [13, 22] was 0 and the “Plant response rating (scale of 0 to 100), Velvetleaf” value ([13]; Preemergence, 250 g ai/ha) was 0.
